Measurements: patent EP0490193A1, “Complex of an actif enantiomer of ibuprofen with cyclodextrin” (priority 1990, dated 1992)

Columns and labels:
[1] = nach Ibuprofengaben; cited from earlier work
[2] = Ratten; cited from earlier work
[3] = Dissolution properties in water at 37° C (Tabelle I); assay type: physicochemical; details: Wasser
[4] = In vitro diffusion study, concentration in the receptor cell, buffer pH 1,2, 37° C (Tabelle II); assay type: in vitro ADME; details: Pufferlösung pH = 1,2, 37° C
From the text: Um die gute biologische Verfügbarkeit des S-(+)-Ibuprofens aus der komplexierten Form zu testen, wurden in vitro-Diffusionsversuche durchgeführt. Die Diffusion des S-(+)-Ibuprofens aus dem β-Cyclodextrin-Komplex war schneller, die S-(+)-Ibuprofen-Menge in der Rezeptorzelle betrug das 1,6fache bei pH = 1,2 nach 6 Stunden im Vergleich zum freien Arzneimittel (Tabelle II).

[5] = synoviale Flüssigkeit, Patienten mit Arthritis; cited from earlier work

Compound	aus dem Urin zurückgewonnen [1]	Absorptionsgrad [2]	gelöstes Ibuprofen ([3]; Zeit 1 min)	gelöstes Ibuprofen ([3]; Zeit 5 min)	gelöstes Ibuprofen ([3]; Zeit 10 min)	gelöstes Ibuprofen ([3]; Zeit 15 min)	gelöstes Ibuprofen ([3]; Zeit 30 min)	gelöstes Ibuprofen ([3]; Zeit 60 min)	Konzentration von S-(+)-Ibuprofen in der Rezeptorzelle ([4]; Zeit 90 min)	Konzentration von S-(+)-Ibuprofen in der Rezeptorzelle ([4]; Zeit 120 min)	Konzentration von S-(+)-Ibuprofen in der Rezeptorzelle ([4]; Zeit 180 min)	Konzentration von S-(+)-Ibuprofen in der Rezeptorzelle ([4]; Zeit 240 min)	Konzentration von S-(+)-Ibuprofen in der Rezeptorzelle ([4]; Zeit 360 min)	Konzentrationsverhältnis S zu R [5]
CC(C)Cc1ccc(C(C)C(=O)O)cc1 (racemic) [Ibuprofen]	5,0%	gleich	–	–	–	–	–	–	–	–	–	–	–	–
CC(C)Cc1ccc([C@H](C)C(=O)O)cc1 [S-(+)-Ibuprofen, S-(+)-2-(-4-Isobutylphenyl)propionsäure]	–	–	0,04 mg/ml	0,10 mg/ml	0,12 mg/ml	0,13 mg/ml	0,12 mg/ml	0,12 mg/ml	0,022 mg/ml	0,027 mg/ml	0,038 mg/ml	0,047 mg/ml	0,061 mg/ml	2,1
